As usually defined, the inhibition is the change of the read-out against control, counted positive when it falls. A low value points to a response near the control. The term IC50 denotes the concentration that gives 50% inhibition. Higher therefore signals lower potency.

Where a name gives a salt, the structure may show the parent alone.

The values that follow come from US5698567A, “Heterocyclic spiro compounds” (Adir Et Compagnie, priority 1995, dated 1997).

In experiment [1] the test system is 5-lipoxygenase. As to the kind of experiment: Inhibition of the synthesis of LTB4 by the peritoneal PMN of rats in vitro (5-lipoxygenase-inhibiting activity). The class given is cell-based, rat. To be noted: rat peritoneal PMN, A23187 10^-6 M. From the text:
1.1 Determination of 5-1ipoxygenase-inhibiting activity in vitro (see Goldyne M. E., Burrish G. F., Poubelle P. and Borgeat P., Arachidonic Acid Metabolism among human mononuclear leukocytes. The Journal of Biological Chemistry. Vol. 259, N° 4, p. 8815-8819, 1984, and New Chang C. and Gin Wensu. Stimulation of 5-Lipoxygenase Activity in Polymorphonuclear Leukocytes of Rats by Caseinate Treatment. Biochemical Pharmacology. Vol. 36, N° 8, p. 3033-3036, 1987).
(§1) 5-Lipoxygenase-inhibiting activity was determined on peritoneal leukocytes of rats. Leukocytosis is induced in male OFA rats (IFFA CREDO) weighing 200-250 g by the intraperitoneal injection of 12% sodium caseinate. 18 hours later, the cells are collected by washing the abdominal cavity. The number of cells is adjusted to 2×10^6 /ml.
(§2) The cell suspension is incubated for 10 minutes at 37° C. in the presence of Ca^2+ 5×10^-4 M and Mg^2+ 2×10^-3 M and of various concentrations of the test products. The cells are then stimulated with the calcium ionophore A23187 at a concentration of 10^-6 M for 5 minutes at 37° C. Controls are carded out by incubating the cells with the solvent for the products: 2% DMSO.
After stopping the reaction at +4° C. and centrifugation, the quantity of LTB4 in ng/2×10^6 cells in the supernatants is determined by the E.I.A. method (Statlergenes France). The percentage inhibition is calculated as follows: [formula]
(§3) Metabolism of arachidonic acid by the peritoneal PMN of rats stimulated
(§4) for 5 minutes in vitro by the calcium ionophore (A23187): 10^-6 M.
(§5) Incubation of the products with the cells for 10 minutes prior to
(§6) stimulation with the ionophore.

Experiment [2] deals with synthesis of PGE2 by the peritoneal PMN of rats. As to the kind of experiment: Inhibition of the synthesis of PGE2 by the peritoneal PMN of rats in vitro. Type of experiment: cell-based, rat. Conditions: A23187; for inhibition at 100 µM: 10^-4 M; for inhibition at 100 µM / inhibition at 10 µM: rat peritoneal PMN; for inhibition at 10 µM: 10^-5 M; for IC50: rat peritoneal PMN in vitro. As to the method:
as §1, §2, §3, §4, §5, §6

The test system of experiment [3] is 5-lipoxygenase. As to the kind of experiment: Inhibition of the synthesis of LTB4 in total blood of rats ex vivo (5-lipoxygenase-inhibiting activity). Set-up: species or system rat. Conditions: 60 μmol/kg p.o., 1 h; A23187 5 × 10^-5 M, n = 8. As to the method: 1.2 Determination of 5-lipoxygenase-inhibiting activity ex vivo (see Brideau C., Chan C., Charleson S., Denis D. et al. Pharmacology of MK-0591 (3-[1-(4-chlorobenzyl)-3-(t-butyl-thio)-5(quinolin-2-yl-methoxy)-indol-2-yl]-2,2-dimethyl propanoic acid), a Potent, Orally Active Leukotriene Biosynthesis Inhibitor. Can. J. Physiol. Pharmacol. Vol. 70, p. 799-807, 1992).
Inhibition of the biosynthesis of leukotrienes ex vivo following oral administration of the compounds was determined by studying the production of leukotrienes on total blood of rats stimulated in vitro by the calcium ionophore at time 1 hour after oral administration of the compounds.
The various products are administered in suspension in hydroxyethylcellulose: 0.5% H.E.C. at a dose of 60 μmol/kg. Each product is studied on a group of 8 different animals. A control group receives 0.5% H.E.C. only. After intracardial removal of the blood from each rat (male Sprague Dawley rats weighing 150-200 g IFFA CREDO), 1 ml of heparinised blood is incubated with the calcium ionophore A23 187 at a concentration of 5×10^-5 M for 10 minutes at 37° C. The blood is then centrifuged immediately and 100 μl of plasma are extracted in 400 μl of methanol. After centrifugation, the supernatant is evaporated to dryness under N2, the dry residue is taken up in buffer solution, and the LTB4 is assayed by the E.I.A. method (Stallergenes France).
The percentage inhibition is expressed as follows: [formula] 2/Results
Average relative to all controls n = 31
Products administered p.o. 1 hour before removal of blood n = 8
Total blood of rats stimulated for 10 minutes in vitro by the calcium

On to `O=C1NCC2(CCN(CC(c3ccccc3)c3ccc(OCc4ccc5ccccc5n4)cc3)CC2)O1` (racemic) [Example 6, (R,S)-8-{2-phenyl-2-[4-(quinol-2-ylmethoxy)phenyl]ethyl}-3,8-diaza-1-oxa-2-oxospiro[4,5]decane], for which the “LTB4 % Inhibition” value turned out to be 60% with 5-lipoxygenase [1] (4.10^-8 M), 100% in the experiment with 5-lipoxygenase [1] (10^-6 M), 93% with 5-lipoxygenase [1] (10^-7 M) and 21% with 5-lipoxygenase [1] (10^-8 M). For the same compound, the inhibition at 100 µM in experiment [2] was found to be 88%. For the same compound, in experiment [2], testing at 10 µM gave an inhibition of 3%. For the same compound, in the experiment on 5-lipoxygenase [3], the “% Inhibition of the synthesis of LTB4 in total blood of rats ex vivo” value (from here on “% Inhibition of the synthesis of LTB4”) was found to be 64%.

Turning to `O=C1NCC2(CCN(CC(c3ccc(Cl)cc3)c3ccc(OCc4ccc5ccccc5n4)cc3)CC2)O1` (racemic) [Example 8, (R,S)-8-{2-(4-chlorophenyl)-2-[4-(quinol-2-ylmethoxy)phenyl]ethyl}-3,8-diaza-1-oxa-2-oxospiro[4,5]decane dihydrochloride], the “LTB4 % Inhibition” value in the experiment on 5-lipoxygenase [1] (4.10^-8 M) is on record as 85%; with 5-lipoxygenase [1] (10^-6 M), 100%; with 5-lipoxygenase [1] (10^-7 M), 100%; in the experiment with 5-lipoxygenase [1] (10^-8 M) it was 22%. In addition, testing at 100 µM in experiment [2] gave an inhibition of 72%. Besides, the inhibition at 10 µM in experiment [2] amounted to 32%. The “% Inhibition of the synthesis of LTB4” value in the experiment on 5-lipoxygenase [3] is listed as 46%.

As for `O=C1NCC2(CCN(C(c3ccc(Cl)cc3)c3ccc(OCc4ccc5ccccc5n4)cc3)CC2)O1` (racemic) [Example 22, (R,S)-8-{(4-chlorophenyl)-[4-(quinol-2-ylmethoxy)phenyl]methyl}-3,8-diaza-1-oxa-2-oxospiro[4,5]decane dihydrochloride], the “LTB4 % Inhibition” value was 76% with 5-lipoxygenase [1] (4.10^-8 M), 100% in the experiment with 5-lipoxygenase [1] (10^-6 M), 97% with 5-lipoxygenase [1] (10^-7 M) and 18% with 5-lipoxygenase [1] (10^-8 M). This compound showed an inhibition at 100 µM in experiment [2] of 4%. In experiment [2], this compound yielded an inhibition at 10 µM of 6%. This compound also registered an IC50 in experiment [2] of over 100 µM. The “% Inhibition of the synthesis of LTB4” value with 5-lipoxygenase [3] was 17%.

With `O=C1NCC2(CCN(C(c3ccccc3)c3ccc(OCc4ccc5ccccc5n4)cc3)CC2)O1` (racemic) [Example 24, (R,S)-8-{phenyl-[4-(quinol-2-ylmethoxy)phenyl]methyl}-3,8-diaza-1-oxa-2-oxospiro[4,5]decane], the “LTB4 % Inhibition” value with 5-lipoxygenase [1] (4.10^-8 M) was 56%. Also, the “LTB4 % Inhibition” value in the experiment on 5-lipoxygenase [1] (10^-7 M) is 100%. In experiment [2], this compound showed an inhibition at 100 µM of 44%, an inhibition at 10 µM of 19% and an IC50 of over 100 µM. The “% Inhibition of the synthesis of LTB4” value with 5-lipoxygenase [3] is 41%.

Take `O=C1NCC2(CCN(CC(Cc3ccccc3)c3ccc(OCc4ccc5ccccc5n4)cc3)CC2)O1` (racemic) [Example 32, (R,S)-8-{3-phenyl-2-[4-(quinol-2-ylmethoxy)phenyl]propyl}-3,8-diaza-1-oxa-2-oxospiro[4,5]decane]: the “LTB4 % Inhibition” value came to 24% with 5-lipoxygenase [1] (4.10^-8 M), 100% in the experiment on 5-lipoxygenase [1] (10^-6 M) and 78% in the experiment on 5-lipoxygenase [1] (10^-7 M). In addition, in experiment [2], testing at 100 µM gave an inhibition of 92%. Further, in the experiment with 5-lipoxygenase [3], the “% Inhibition of the synthesis of LTB4” value is reported as 55%.

Regarding `O=C1NCC2(CCN(CC(CCc3ccccc3)c3ccc(OCc4ccc5ccccc5n4)cc3)CC2)O1` (racemic) [Example 33, (R,S)-8-{4-phenyl-2-[4-(quinol-2-ylmethoxy)phenyl]butyl}-3,8-diaza-1-oxa-2-oxospiro[4,5]decane], the “LTB4 % Inhibition” value in the experiment with 5-lipoxygenase [1] (4.10^-8 M) was determined as 54%; in the experiment with 5-lipoxygenase [1] (10^-7 M) it was 86%; in the experiment on 5-lipoxygenase [1] (10^-8 M), 6%. In experiment [2], this compound yielded an inhibition at 100 µM of 94%. Moreover, testing at 10 µM in experiment [2] gave an inhibition of 7%. Besides, the “% Inhibition of the synthesis of LTB4” value in the experiment with 5-lipoxygenase [3] came out at 48%.

Regarding `O=C1NCC2(CCN(CC(Cc3ccc(Cl)cc3)c3ccc(OCc4ccc5ccccc5n4)cc3)CC2)O1` (racemic) [Example 34, (R,S)-8-{3-(4-chlorophenyl)-2-[4-(quinol-2-ylmethoxy)phenyl]propyl}-3,8-diaza-1-oxa-2-oxospiro[4,5]decane hydrochloride], the “LTB4 % Inhibition” value with 5-lipoxygenase [1] (4.10^-8 M) was determined as 56%; with 5-lipoxygenase [1] (10^-6 M), 100%; in the experiment on 5-lipoxygenase [1] (10^-7 M), 72%; in the experiment on 5-lipoxygenase [1] (10^-8 M), 12%. In addition, in experiment [2], the inhibition at 100 µM amounted to 6%. In addition, at 10 µM the inhibition in experiment [2] was 2%. In experiment [2], this compound came in with a half-inhibitory concentration (IC50) of over 100 µM. Also, in the experiment on 5-lipoxygenase [3], the “% Inhibition of the synthesis of LTB4” value amounted to 58%.
